According to publication PMC8282722 (Current biology : CB, 2021):

Target: T1, GFP-Rab34 (LAP-Rab34) (Homo sapiens, UniProt Q9BZG1)
T1 sequence (Q9BZG1 1-259): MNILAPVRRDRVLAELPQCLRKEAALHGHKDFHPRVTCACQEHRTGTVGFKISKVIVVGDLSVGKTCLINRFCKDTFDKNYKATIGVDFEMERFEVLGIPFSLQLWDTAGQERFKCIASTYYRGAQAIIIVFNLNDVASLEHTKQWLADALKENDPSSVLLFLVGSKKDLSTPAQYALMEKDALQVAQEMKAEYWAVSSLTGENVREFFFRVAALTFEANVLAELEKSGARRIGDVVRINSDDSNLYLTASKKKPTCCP
Type: cell-based
Details: labelled compound; HEK293T cells; 10 mM MgCl2 in lysis buffer

32P metabolic labelling in cells, anti-GFP immunoprecipitation, TLC of bound nuc: wildtype Rab34 was mostly GDP-bound
SMILES: Nc1nc2c(ncn2[C@@H]2O[C@H](COP(=O)(O)OP(=O)(O)O)[C@@H](O)[C@H]2O)c(=O)[nH]1 [GDP]
